In patent US10221139B2, “Inhibitors of histone demethylases” (Gilead Sciences, Inc., priority 2012, dated 2019):
pIC50: −log10 of the molar value.

Assays:
Type in all cases: biochemical
JMJD3 (KDM6B) = target: T1, JMJD3 (KDM6B) (Homo sapiens, UniProt O15054); experiment: Histone lysine demethylase AlphaLISA assay, JMJD3; settings: substrate BK27M3
T1 construct: 1043-end; purchased BPS; host or cells: Bac (baculovirus)
Procedure: (§1) Example 2: Histone Lysine Demethylase AlphaLISA Assays for IC50 Value Determination
(§2) Assays are performed analogously to the protocol described by Perkin Elmer (Roy et al. Perkin Elmer Technical Note: AlphaLISA #12, April 2011).
(§3) Enzymes are dissolved in enzyme buffer and incubated for 10 min before 5 μL is added to 5 μL 3% DMSO solutions of compounds in enzyme buffer. Incubated for another 10 minutes, before 5 μL substrate solution is added and the reaction mixture is incubated at room temperature for the given period. 10 μL acceptor beads, suspended at given dilutions in Epigenetic Buffer (Perkin Elmer AL008) from stock, are added and the suspension is incubated 60 minutes in the dark at room temperature, before 10 μL suspension (at the given dilutions in Epigenetic Buffer) of streptavidin donor beads (Perkin Elmer 6760002) in Epigenetic Buffer is added. After incubation at room temperature in the dark the plates are read. Reaction conditions are seen in Table 2b.

JMJD1B (KDM3B) = target: T2, JMJD1B (KDM3B) (Homo sapiens, UniProt Q7LBC6); experiment: Histone lysine demethylase AlphaLISA assay, JMJD1B; settings: substrate BK9M2
T2 construct: 842-1761; host or cells: Bac (baculovirus)
T2 sequence (Q7LBC6 842-1761): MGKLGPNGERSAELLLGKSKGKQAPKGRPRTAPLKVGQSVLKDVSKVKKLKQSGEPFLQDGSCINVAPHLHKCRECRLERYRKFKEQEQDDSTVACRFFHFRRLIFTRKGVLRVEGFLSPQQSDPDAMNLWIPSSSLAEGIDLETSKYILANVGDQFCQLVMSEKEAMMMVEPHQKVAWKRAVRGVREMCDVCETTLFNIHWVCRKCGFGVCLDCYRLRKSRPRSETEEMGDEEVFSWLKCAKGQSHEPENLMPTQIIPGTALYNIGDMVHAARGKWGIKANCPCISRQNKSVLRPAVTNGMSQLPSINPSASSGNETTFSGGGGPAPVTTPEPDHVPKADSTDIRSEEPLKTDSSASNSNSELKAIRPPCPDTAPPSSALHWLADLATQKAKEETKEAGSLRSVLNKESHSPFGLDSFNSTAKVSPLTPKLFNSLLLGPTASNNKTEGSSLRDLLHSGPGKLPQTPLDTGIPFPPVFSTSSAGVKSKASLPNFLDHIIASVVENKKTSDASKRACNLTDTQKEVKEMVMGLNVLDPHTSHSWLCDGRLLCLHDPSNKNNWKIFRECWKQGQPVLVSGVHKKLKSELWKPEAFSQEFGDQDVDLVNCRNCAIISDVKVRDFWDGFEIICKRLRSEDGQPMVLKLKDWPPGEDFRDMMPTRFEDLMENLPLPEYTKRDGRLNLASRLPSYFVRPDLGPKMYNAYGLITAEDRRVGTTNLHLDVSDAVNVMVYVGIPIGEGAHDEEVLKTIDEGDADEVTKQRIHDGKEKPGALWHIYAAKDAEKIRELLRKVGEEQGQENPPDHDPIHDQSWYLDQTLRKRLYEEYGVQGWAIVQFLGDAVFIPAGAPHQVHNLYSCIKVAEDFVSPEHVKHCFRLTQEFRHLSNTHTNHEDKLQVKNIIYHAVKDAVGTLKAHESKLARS
Procedure: as §1, §2, §3

JMJD2A (KDM4A) = target: T3, JMJD2A (KDM4A) (Homo sapiens, UniProt O75164); experiment: Histone lysine demethylase AlphaLISA assay, JMJD2A; settings: substrate BK9M3
T3 construct: 1-350; purchased BPS, Bioscience, US; host or cells: E. coli
T3 sequence (O75164 1-350): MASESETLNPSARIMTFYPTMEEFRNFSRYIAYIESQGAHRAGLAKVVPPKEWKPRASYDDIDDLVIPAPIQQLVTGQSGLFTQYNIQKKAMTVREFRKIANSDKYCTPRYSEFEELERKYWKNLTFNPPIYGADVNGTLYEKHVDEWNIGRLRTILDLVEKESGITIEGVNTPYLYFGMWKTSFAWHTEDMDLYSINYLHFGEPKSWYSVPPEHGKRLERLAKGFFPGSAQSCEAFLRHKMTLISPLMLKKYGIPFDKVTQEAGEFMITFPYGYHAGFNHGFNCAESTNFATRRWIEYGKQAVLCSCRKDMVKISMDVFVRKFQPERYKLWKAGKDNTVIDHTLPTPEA
Procedure: as §1, §2, §3

UTX (KDM6A) = target: T4, UTX (KDM6A) (Homo sapiens, UniProt O15550); experiment: Histone lysine demethylase AlphaLISA assay, UTX; settings: substrate BK27M3
T4 construct: 919-1401; host or cells: E. coli
Summary of the method: (§4)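 Per-enzyme reaction conditions apply; each enzyme sees compound for 10 min ahead of substrate addition. Bead-based AlphaLISA detection at room temperature, protected from light, gives the IC50.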

PLU1 (KDM5B) = target: T5, PLU1 (KDM5B) (Homo sapiens, UniProt Q9UGL1); experiment: Histone lysine demethylase AlphaLISA assay, PLU1; settings: substrate H3K4M3B
T5 construct: 1-809; host or cells: E. coli
T5 sequence (Q9UGL1 1-809): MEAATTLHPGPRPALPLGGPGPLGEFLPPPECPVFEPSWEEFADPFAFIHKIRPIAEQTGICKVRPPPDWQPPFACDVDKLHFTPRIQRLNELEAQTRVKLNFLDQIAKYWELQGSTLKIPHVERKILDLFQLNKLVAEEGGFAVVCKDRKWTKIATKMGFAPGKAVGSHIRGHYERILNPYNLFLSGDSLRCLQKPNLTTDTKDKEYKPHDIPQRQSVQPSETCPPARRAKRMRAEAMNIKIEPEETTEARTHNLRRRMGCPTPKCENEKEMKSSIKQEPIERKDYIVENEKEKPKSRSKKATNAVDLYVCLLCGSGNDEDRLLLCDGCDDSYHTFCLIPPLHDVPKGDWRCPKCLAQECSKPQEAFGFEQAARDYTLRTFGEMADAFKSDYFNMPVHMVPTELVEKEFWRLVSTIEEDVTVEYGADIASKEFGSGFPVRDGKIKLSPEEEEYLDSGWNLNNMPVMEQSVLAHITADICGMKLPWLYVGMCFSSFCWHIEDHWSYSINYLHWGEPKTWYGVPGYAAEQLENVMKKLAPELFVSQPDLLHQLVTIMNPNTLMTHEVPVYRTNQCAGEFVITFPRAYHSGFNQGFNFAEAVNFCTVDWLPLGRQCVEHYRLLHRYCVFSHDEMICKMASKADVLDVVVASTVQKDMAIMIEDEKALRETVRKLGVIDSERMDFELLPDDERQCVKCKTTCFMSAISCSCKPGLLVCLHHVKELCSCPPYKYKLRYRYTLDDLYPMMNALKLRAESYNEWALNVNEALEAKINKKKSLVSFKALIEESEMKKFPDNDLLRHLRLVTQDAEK
Summary of the method: as §4

T4 sequence (O15550 919-1401): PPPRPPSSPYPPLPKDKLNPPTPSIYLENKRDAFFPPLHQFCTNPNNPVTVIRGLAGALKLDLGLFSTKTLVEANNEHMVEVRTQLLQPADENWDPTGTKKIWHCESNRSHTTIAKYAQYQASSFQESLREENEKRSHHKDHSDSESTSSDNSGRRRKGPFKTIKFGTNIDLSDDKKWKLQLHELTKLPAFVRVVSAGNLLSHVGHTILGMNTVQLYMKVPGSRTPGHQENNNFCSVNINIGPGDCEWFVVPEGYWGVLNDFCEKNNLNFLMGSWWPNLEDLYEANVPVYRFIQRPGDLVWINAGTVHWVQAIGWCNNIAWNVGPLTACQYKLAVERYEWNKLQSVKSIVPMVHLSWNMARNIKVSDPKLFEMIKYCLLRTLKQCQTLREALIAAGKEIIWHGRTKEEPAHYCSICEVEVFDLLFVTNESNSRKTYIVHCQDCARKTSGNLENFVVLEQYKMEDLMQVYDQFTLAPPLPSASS
T1 sequence (O15054 1043-1682 isoform O15054-1 limits assumed): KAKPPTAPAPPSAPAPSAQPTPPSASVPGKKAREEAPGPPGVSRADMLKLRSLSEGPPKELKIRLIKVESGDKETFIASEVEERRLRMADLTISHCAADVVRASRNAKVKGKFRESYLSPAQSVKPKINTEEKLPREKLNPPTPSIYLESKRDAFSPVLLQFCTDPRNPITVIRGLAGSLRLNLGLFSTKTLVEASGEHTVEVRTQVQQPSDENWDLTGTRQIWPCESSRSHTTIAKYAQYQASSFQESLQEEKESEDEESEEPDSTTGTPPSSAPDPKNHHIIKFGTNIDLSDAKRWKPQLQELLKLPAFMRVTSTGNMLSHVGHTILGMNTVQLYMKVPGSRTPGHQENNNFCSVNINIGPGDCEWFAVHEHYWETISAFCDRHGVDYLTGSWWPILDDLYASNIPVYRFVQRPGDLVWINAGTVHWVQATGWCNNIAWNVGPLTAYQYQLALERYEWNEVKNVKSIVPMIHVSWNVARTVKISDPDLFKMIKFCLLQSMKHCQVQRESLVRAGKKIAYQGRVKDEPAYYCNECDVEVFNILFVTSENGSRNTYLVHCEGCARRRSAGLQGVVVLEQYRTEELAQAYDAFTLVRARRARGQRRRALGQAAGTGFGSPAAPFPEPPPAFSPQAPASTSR

## CCCCN1CCCC1CCNCc1cc(C(=O)O)ccn1 (stereo not shown) [#34, 2-({[2-(1-butylpyrrolidin-2-yl)ethyl]amino}methyl)pyridine-4-carboxylic acid]
JMJD3 (KDM6B)
  pIC50: ≤ 6.00
JMJD1B (KDM3B)
  pIC50: ≤ 6.00
JMJD2A (KDM4A)
  pIC50: > 7.00
UTX (KDM6A)
  pIC50: ≤ 6.00
PLU1 (KDM5B)
  pIC50: > 7.00

## O=C(O)c1ccnc(CNCC(=O)N2CCCC2)c1 [#13, 2-({[2-oxo-2-(pyrrolidin-1-yl)ethyl]amino}methyl)pyridine-4-carboxylic acid]
JMJD3 (KDM6B)
  pIC50: ≤ 6.00
JMJD1B (KDM3B)
  pIC50: ≤ 6.00
JMJD2A (KDM4A)
  pIC50: > 7.00
UTX (KDM6A)
  pIC50: ≤ 6.00
PLU1 (KDM5B)
  pIC50: > 7.00

## COc1ccccc1CN1CCC(NC(=O)CNCc2cc(C(=O)O)ccn2)CC1 [#29, 2-({[({1-[(2-methoxyphenyl)methyl]piperidin-4-yl}carbamoyl)methyl]amino}methyl)pyridine-4-carboxylic acid]
JMJD1B (KDM3B)
  pIC50: 6.00 to 7.00
JMJD2A (KDM4A)
  pIC50: > 7.00
PLU1 (KDM5B)
  pIC50: > 7.00

## CC(C)=CCCC(C)CCN1CCC(NC(=O)CNCc2cc(C(=O)O)ccn2)C1 (stereo not shown) [#35, 2-{[({[1-(3,7-dimethyloct-6-en-1-yl)pyrrolidin-3-yl]carbamoyl}methyl)amino]methyl}pyridine-4-carboxylic acid]
JMJD3 (KDM6B)
  pIC50: 6.00 to 7.00
JMJD1B (KDM3B)
  pIC50: ≤ 6.00
JMJD2A (KDM4A)
  pIC50: > 7.00
UTX (KDM6A)
  pIC50: ≤ 6.00
PLU1 (KDM5B)
  pIC50: > 7.00

## CCN(CCN(C)C)C(=O)CNCc1cc(C(=O)O)ccn1 [#49, 2-{[({[2-(dimethylamino)ethyl](ethyl)carbamoyl}methyl)amino]methyl}pyridine-4-carboxylic acid]
JMJD3 (KDM6B)
  pIC50: ≤ 6.00
JMJD1B (KDM3B)
  pIC50: ≤ 6.00
JMJD2A (KDM4A)
  pIC50: > 7.00
UTX (KDM6A)
  pIC50: ≤ 6.00
PLU1 (KDM5B)
  pIC50: > 7.00

## 2-({[(1R)-2-hydroxy-1-{methyl[3-(1-methyl-1H-imidazol-2-yl)propyl]carbamoyl}ethyl]amino}methyl)pyridine-4-carboxylic acid [#37]
JMJD3 (KDM6B)
  pIC50: ≤ 6.00
JMJD1B (KDM3B)
  pIC50: ≤ 6.00
JMJD2A (KDM4A)
  pIC50: > 7.00
UTX (KDM6A)
  pIC50: ≤ 6.00

## CCCCN(C)C(=O)CNCc1cc(C(=O)O)ccn1 [#14, 2-[({[butyl(methyl)carbamoyl]methyl}amino)methyl]pyridine-4-carboxylic acid]
JMJD3 (KDM6B)
  pIC50: ≤ 6.00
JMJD1B (KDM3B)
  pIC50: ≤ 6.00
UTX (KDM6A)
  pIC50: ≤ 6.00
PLU1 (KDM5B)
  pIC50: > 7.00
